Experimental data from ChEMBL document CHEMBL1123048 (J Med Chem, 1985).
Converted amounts (≈) assume the structure as drawn.

Key:
Adenosine receptor A1 [1] = molecular target: T1, Adenosine receptor A1 (Rattus norvegicus, UniProt P25099)
T1 sequence (P25099 whole entry): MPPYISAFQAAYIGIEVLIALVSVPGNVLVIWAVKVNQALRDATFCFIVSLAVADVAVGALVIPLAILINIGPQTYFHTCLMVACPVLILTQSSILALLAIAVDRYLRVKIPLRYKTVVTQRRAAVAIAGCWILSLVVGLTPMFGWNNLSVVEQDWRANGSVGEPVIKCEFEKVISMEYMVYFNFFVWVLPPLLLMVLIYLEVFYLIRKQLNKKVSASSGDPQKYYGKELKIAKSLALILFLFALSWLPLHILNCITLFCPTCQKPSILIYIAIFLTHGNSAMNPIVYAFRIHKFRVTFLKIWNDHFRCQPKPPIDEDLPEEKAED
Description: Binding affinity towards adenosine A1 receptor in rat cerebral cortical membranes by [3H]cyclohexyladenosine displacement.

[2] = molecular target: Adenosine A2 receptor (Cavia porcellus)
[3] = Solubility in 0.1 M sodium phosphate, and at pH 7.2; format: physicochemical; details: 0.1 M sodium phosphate buffer
Adenosine receptor A1 [4] = molecular target: T1, Adenosine receptor A1; experiment: Binding affinity towards adenosine A1 receptor in rat cerebral cortical membranes with 1 nM [3H]cyclohexyladenosine; format: cell membranes
[5] = molecular target: Adenosine A2 receptor (Cavia porcellus); experiment: Binding affinity against A2 adenosine receptor in [3H]adenine-labeled guinea pig cerebral cortical slices

| SMILES | Ki (Adenosine receptor A1 [1]) | Ki [2] | also measured |
| --- | --- | --- | --- |
| CCCn1c(=O)c2nc(-c3ccc(OCC(=O)Nc4ccc(C)cc4)cc3)[nH]c2n(CCC)c1=O | 0.036 µM | 0.75 µM |  |
| CC(=O)O.CCCn1c(=O)c2nc(-c3ccc(OCC(=O)NCCN(CC)Cc4ccc(O)cc4)cc3)[nH]c2n(CCC)c1=O | 0.0022 µM | 0.32 µM |  |
| CCCn1c(=O)c2nc(-c3ccc(OCC(=O)N(C(=O)NC4CCCCC4)C4CCCCC4)cc3)[nH]c2n(CCC)c1=O | 0.096 µM |  |  |
| CCCn1c(=O)c2nc(-c3ccc(O)cc3)[nH]c2n(CCC)c1=O |  |  | solubility [3]: 3.2 µM (≈ 1.05 µg/mL) |
| CCCn1c(=O)c2[nH]c(-c3ccc(OCC(N)=O)cc3)nc2n(CCC)c1=O |  |  | solubility [3]: 26 µM (≈ 10 µg/mL); Ki (Adenosine receptor A1 [4]): 0.006 µM |
| CCCn1c(=O)c2nc(-c3ccc(OCC(=O)ON4C(=O)CCC4=O)cc3)[nH]c2n(CCC)c1=O |  | 0.04 µM |  |
| CCCn1c(=O)c2nc(-c3ccc(OCC(=O)NN)cc3)[nH]c2n(CCC)c1=O | 0.059 µM |  |  |
| CCCn1c(=O)c2[nH]c(-c3ccc(OCC(=O)NCCN)cc3)nc2n(CCC)c1=O [XANTHINE AMINE CONGENER] |  |  | solubility [3]: 90 µM (≈ 38.6 µg/mL) |
| Cn1c(=O)c2nc(-c3ccc(OCC(=O)O)cc3)[nH]c2n(C)c1=O | 0.5 µM | 0.43 µM |  |

Second part, led by results:

| Ki (Adenosine receptor A1 [1]) | Ki [2] | SMILES | also measured |
| --- | --- | --- | --- |
| 0.026 µM |  | Cc1ccc(NC(=O)COc2ccc(-c3nc4c(=O)n(C)c(=O)n(C)c4[nH]3)cc2)cc1 |  |
| 0.005 µM | 0.47 µM | CCCn1c(=O)c2nc(-c3ccc(OCC(=O)NCCCCCCCCN)cc3)[nH]c2n(CCC)c1=O |  |
| 0.024 µM |  | CCCn1c(=O)c2nc(-c3ccc(OCC(=O)NCCNC(C)=O)cc3)[nH]c2n(CCC)c1=O |  |
| 0.0041 µM | 0.062 µM | CCCn1c(=O)c2nc(-c3ccc(OCC(=O)Nc4ccc(O)cc4)cc3)[nH]c2n(CCC)c1=O |  |
| 0.032 µM |  | CCCn1c(=O)c2nc(-c3ccc(OCC(=O)N(C)C)cc3)[nH]c2n(CCC)c1=O |  |
| 0.054 µM |  | CCCn1c(=O)c2nc(-c3ccc(OCC(=O)NCCNC(=O)CCCCC4SCC5NC(=O)NC54)cc3)[nH]c2n(CCC)c1=O (stereo not drawn) | Ki [5]: 0.18 µM |
|  | 0.03 µM | CCCn1c(=O)c2nc(-c3ccc(OCC(=O)OCC)cc3)[nH]c2n(CCC)c1=O |  |
